Data published in patent publication US20100092465A1, “TREATMENT OF GRAFT-VERSUS-HOST DISEASE” (priority 2006, published 2010).

Experiments:
[1] = target: T1, human ligand (single-chain IL27) (Homo sapiens, UniProt Q14213+Q8NEV9); experiment: SPR kinetics of soluble receptor with human IL27 ligand; details: binding with human ligand; gp130 not included
T1 construct: amino-terminal peptide tag (N)
T1 sequence (Q14213+Q8NEV9 with tags, fused parts or gaps): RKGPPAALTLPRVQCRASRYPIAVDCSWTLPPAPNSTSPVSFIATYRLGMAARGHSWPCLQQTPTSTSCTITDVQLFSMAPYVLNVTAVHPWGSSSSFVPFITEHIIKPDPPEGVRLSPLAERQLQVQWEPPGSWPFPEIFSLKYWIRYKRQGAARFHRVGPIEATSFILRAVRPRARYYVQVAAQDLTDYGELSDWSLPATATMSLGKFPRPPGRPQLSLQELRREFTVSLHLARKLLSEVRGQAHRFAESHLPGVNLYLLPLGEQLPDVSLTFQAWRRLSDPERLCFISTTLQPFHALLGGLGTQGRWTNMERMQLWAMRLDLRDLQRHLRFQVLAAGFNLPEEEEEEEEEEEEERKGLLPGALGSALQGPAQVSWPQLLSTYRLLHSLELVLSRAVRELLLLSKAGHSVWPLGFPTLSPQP
Protocol: Kinetic rate and affinity constant values for the mouse (IL27RAm(mFc1), Example 3) and human (IL27RA-Fc5, Example 4) soluble receptors were obtained by surface plasmon resonance (SPR) using an automated instrument (BIACORE 3000; Biacore International AB, Uppsala, Sweden). The mouse soluble receptor was tested against mouse ligand (lot A1418F), and the human soluble receptor was tested against both mouse (A1426F) and human (A1534F) ligands. For determination of the kinetic rate constants for the receptor-ligand interactions, the gp130 molecule was not included as part of the receptor complex.
The IL27 ligands used in this study were single-chain molecules comprising EBI3 connected by its C-terminus to the N-terminus of IL-27 p28 via a polypeptide linker. Each of the ligands included an amino-terminal peptide tag.
For the mouse IL27RA study, the soluble receptor was captured onto the chip surface by an isotype-specific anti-mouse Fc antibody (obtained from Jackson ImmunoResearch Laboratories, Inc., West Grove, Pa.) covalently immobilized to the chip (BIACORE CM5 chip) using the standard amine coupling protocol specified by the instrument manufacturer. […]
All data were assessed using software provided with the instrument (BIACORE Evaluation software v. 3.2). […]

[2] = test system: acute graft-vs-host disease; experiment: Mouse model of acute graft-vs-host disease; format: in vivo
Protocol: Efficacy of IL-27 antagonists was assayed in a mouse model of acute graft-vs-host disease (Durie et al., J. Clin. Invest. 94:1333-1338, 1994). Parental mice (C57BL/6; n=12) were euthanized, and their spleens were collected. The pooled spleens were smashed using two glass slides to dissociate splenic cells. Lysis buffer was added to the splenocyte suspension to remove red blood cells. The cells were washed in RPMI 1640 (10% FBS) medium and resuspended in an appropriate amount of PBS to make a cell concentration of 300 million cells/ml. Protein treatments were administered by intraperitoneal injection every other day beginning on day-1 and continuing until day 15. Dexamethasone (DEX) was administered by injection daily on days 0 through 6. On day 0, 75 million donor splenic lymphocytes from B6 mice (250 .micro.l per injection) were injected intravenously into recipient mice (C57BL/6×DBA/2 F1 (BDF1); n=10 per group) mice. Mice were monitored 3 times a week for changes in body weight and any signs of moribundity. Mice that lost >20% of their initial body weight were euthanized. Otherwise, mice were sacrificed 18 days after the cell transfer. Spleens were collected, and a CTL-specific lysis assay using P815 cells was performed as a quantitative measurement of acute GVHD. Furthermore, spleens were stained for T- and B-cell markers, including MHC class I markers (H2^b and H2^d) to look at donor/recipient cell ratio (acute GVHD spleen cells are mostly donor cells). Sera were collected to measure serum level of IgG1, IgG2a, and IgE by ELISA, and cytokine and chemokine levels using a commercially available kit (Luminex Corporation, Austin, Tex.).

ka [1]: 1e+07 M⁻¹ s⁻¹ | kd [1]: 0.0019 s⁻¹
Substance: human IL-27RA-Fc5: human IL27RA extracellular domain (amino acids 1 to 512 of SEQ ID NO:5) fused to Fc5, effector minus human gamma1 Fc; SEQ ID NO:3
colon length shortening ([2]; mouse, in vivo): did prevent colon length shortening | splenomegaly ([2]; mouse, in vivo): did not prevent splenomegaly | maintenance of host spleen cells, CD4+ T cells, and Treg cells ([2]; proteins 100 µl of 1 mg/ml IP every other day, day -1 to 15, DEX daily days 0-6, day 18): maintained host spleen cells, CD4+ T cells, and Treg cells | Body weight loss ([2]; versus PBS controls): not severe and was significantly less than in PBS controls
